From patent US8263526B2, “Compositions of keratin hydrolysate and microbes for pest control applications” (priority 2006, dated 2012)
Like-named read-outs stand apart in the source and are kept apart here.

Experiments:
Format in all cases: cell-based
[1] = test system: blastospores of Paecilomyces fumosoroseus ARSEF 3581; test: % germination assay (6-hr) of blastospores in surfactant solutions
Experimental: (§1) Blastospore suspensions (˜1×10^8 blastospores/ml) were prepared by adding 1.3 g of the dried blastospores of P. fumosoroseus formulate to 100 ml sterile deionized water. The spore suspension was stirred for 30 minutes, and then allowed to stand 1 minute to allow the diatomaceous earth to settle. Without disturbing the diatomaceous earth, 30 ml of the spore suspension was removed and transferred to a sterile bottle. The blastospore concentration of the suspension was measured using a hemacytometer.
A one ml aliquot of the previously described blastospore suspension was added to 49 ml of the foaming agents in a 250 ml baffled Erlenmeyer flask. The blastospore suspensions were incubated in a rotary shaker incubator (Innova 4000, New Brunswick) at 300 RPM and 28° C. for 6 hours. Blastospore germination was measured by microscopic observation of the germ tube formation. Four slides were prepared from the incubated blastospore suspension using separate pipets. Germ tube formation was measured for 100 blastospores on each slide. A total of 400 blastospores were counted from each flask.

[2] = test system: blastospores of Paecilomyces fumosoroseus ARSEF 3581; test: Viability assay, CFU spread plate after 1 hour exposure to surfactant; settings: in words
Experimental: as §1
For these studies, 1 ml of the previously described blastospore suspension was added to 49 ml of the foaming agents and held for 1 hour at room temperature. After the one hour exposure period, colony forming units (cfu) were determined for blastospore suspensions using standard spread plating techniques. Appropriate dilutions of blastospore suspensions were spread on SDMA (Sabouraud dextrose maltose agar) plates, 10 g Bacto peptone, 20 g Difco dextrose, 20 g Sigma maltose, and 15 g Bacto agar per 1 L water. Three plates were used for each dilution. Plates were incubated at 28° C. for 2-3 days and CFUs counted.

[3] = test system: blastospores of Paecilomyces fumosoroseus ARSEF 3581; test: Conidia production assay on water agar in the dark; settings: 2 weeks in the dark
Experimental: For the conidia production assay, 100 ul of the blastospore suspension was spread onto WA plates (Water Agar: 20 g/L water.) and incubated 2 weeks in the dark. Three plates were used for each treatment. The drop was spread with a sterile plastic spreader and incubated at 23° C. in the dark for 2 weeks. After two weeks, 5 ml of sterile water was added to each plate, and a sterile loop was used to release the conidia from the fungal growth. The spore suspension was drawn up with a pipet and the volume measured. The conidia concentration was measured using a hemacytometer. Our previous determination of the blastospore concentration in the suspension applied to the […] plates was used to calculate conidia production/blastospore.

CCCCCCCCCCCCCCCC[N+](C)(C)C.[Br-] [hexadecyl trimethylammonium Br, hexadecyl trimethylammonium bromide]
% viability 6-hr germination ([1]; surfactant 0.5% (w/w), 6 hours, 28° C.): 0.0%

Triton x-100
germination of blastospores relative to the water-only control ([1]; 6-hr germination assay, in words): strongly inhibited | cfu formation relative to the water control [2]: comparable or better cfu formation than the water control | conidia production (conidia/blastospore) ([3]; surfactant 0.5% (w/w)): 95 conidia/blastospore | conidia production (conidia/blastospore) ([3]; surfactant 1.0% (w/w)): 57 conidia/blastospore | conidia production (conidia/blastospore) ([3]; surfactant 2.0% (w/w)): 27 conidia/blastospore

sodium lauryl ether sulfate (2-mole) [Na Lauryl ether sulfate (2-mole)]
% viability 6-hr germination [1]: 0.0%

sodium alpha olefin sulfonate [Na alpha olefin sulfonate]
% viability 6-hr germination [1]: 0.0%
